pIC50: −log10 of the molar value. Where only a bound is given, the exact number is not on record here.

What is called pIC50 is the negative decadic logarithm of the IC50, by convention in mol/L.

Sequence of full-length human HPK1 (MAP4K1) (Q92918 whole entry): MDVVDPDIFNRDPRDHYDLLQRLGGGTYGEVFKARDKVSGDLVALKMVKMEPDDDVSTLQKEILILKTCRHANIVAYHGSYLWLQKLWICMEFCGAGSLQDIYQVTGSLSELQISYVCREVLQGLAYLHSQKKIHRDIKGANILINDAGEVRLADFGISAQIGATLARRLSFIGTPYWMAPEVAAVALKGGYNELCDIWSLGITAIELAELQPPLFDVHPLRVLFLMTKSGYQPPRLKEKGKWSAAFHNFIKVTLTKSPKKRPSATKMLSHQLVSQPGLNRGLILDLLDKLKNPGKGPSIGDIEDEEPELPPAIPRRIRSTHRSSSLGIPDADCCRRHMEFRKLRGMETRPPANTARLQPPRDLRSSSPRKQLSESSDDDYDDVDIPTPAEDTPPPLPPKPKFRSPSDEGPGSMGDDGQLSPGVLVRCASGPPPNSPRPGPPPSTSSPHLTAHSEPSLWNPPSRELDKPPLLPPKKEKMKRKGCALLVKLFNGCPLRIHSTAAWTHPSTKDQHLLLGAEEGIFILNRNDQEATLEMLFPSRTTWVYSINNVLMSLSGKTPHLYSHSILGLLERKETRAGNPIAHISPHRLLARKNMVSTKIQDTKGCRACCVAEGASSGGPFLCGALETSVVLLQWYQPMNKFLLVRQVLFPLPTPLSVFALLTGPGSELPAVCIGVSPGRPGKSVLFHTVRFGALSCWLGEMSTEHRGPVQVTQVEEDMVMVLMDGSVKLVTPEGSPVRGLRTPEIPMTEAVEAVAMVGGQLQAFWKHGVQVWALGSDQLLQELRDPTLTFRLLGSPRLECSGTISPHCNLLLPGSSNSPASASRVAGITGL

The experiment concerns the target full-length human HPK1 (MAP4K1) (Homo sapiens (Human), UniProt Q92918). Put plainly: HPK1 kinase assay (biochemical, ADP-Glo). The note with it: GST-HPK1 3.2 nM, 10 μM ATP, MBP substrate, ADP-Glo; read-out: HPK1 enzymatic IC50. The text has this:
HPK1 kinase assay (Biochemical assay).
A recombinant fusion protein consisting of full-length human HPK1 (MAP4K1) with an N-terminal Glutatione S-transferase (GST) tag was produced in insect cells Sf21 using the baculovirus expression system. GST-HPK1 protein was purified from cell lysates by glutathione Sepharose affinity chromatography. The assay is run in three continuous steps: 1) the HPK1 enzymatic kinase reaction, 2) an ATP depletion, and 3) the ADP detection, the steps 2 and 3 are performed with ADP-Glo™ Kinase Assay kit from Promega (V9101). Test compounds were prepared by 10-point serial dilution in dimethyl sulfoxide (DMSO) and 100 nL of each dilution was spotted onto a 384-well Optiplate (Perkin Elmer and Cat #6007299) by Labcyte Echo. 5 μL kinase reaction buffer (0.02% Brij-35, 2 mM DTT, 50 mM HEPES pH 7.5, MgCl2 10 mM, BSA 0.01% and β-glycerophosphate 12.5 mM) containing HPK1 (3.2 nM) enzyme was transferred to each well and incubated for 15 minutes at room temperature at 60% humidity. The enzymatic reaction was started by adding 5 μl of Start-Mix (10 μM ATP and 3.235 μM MBP). After 120 minutes, the reaction was stopped by adding 5 μL of ADP-Glo reagent (Promega, V9101) and incubating for 40 min. in the dark at 23° C. To determine the level of ADP, 10 μl ADP-Glo Detection solution was added and incubated for 1 hour at 23° C. in the dark. The plate was transferred to a Perkin Elmer EnVision (2104 Multilabel Reader) for luminescence detection and percent inhibition activity and IC50 value were determined using Genedata Screener.
For `N#Cc1cc(C(F)F)ccc1-c1cc(C(N)=O)c2ncnc(N[C@@H]3CNCC(F)(F)C3)c2n1` [Example 10, (S)-6-(2-cyano-4-(difluoromethyl)phenyl)-4-((5,5-difluoropiperidin-3-yl)amino)pyrido[3,2-d]pyrimidine-8-carboxamide], the negative logarithm of the IC50 (pIC50) was 6.00 to 7.00. Next, `CN1CC=C(c2cc(C(N)=O)c3ncnc(N[C@H]4CCCNC4)c3n2)CC1` [Example 73, 6-(1-methyl-1,2,3,6-tetrahydropyridin-4-yl)-4-{[(3S)-piperidin-3-yl]amino}pyrido[3,2-d]pyrimidine-8-carboxamide]: below 6.00; `COc1ccc(-c2cc(C(N)=O)c3ncnc(N[C@@H]4CNCC(F)(F)C4)c3n2)cc1` [Example 11, (S)-4-((5,5-difluoropiperidin-3-yl)amino)-6-(4-methoxyphenyl)pyrido[3,2-d]pyrimidine-8-carboxamide]: 6.00 to 7.00. `NC(=O)c1cc(-c2ccc(CN3CC[C@H](F)C3)cc2)nc2c(N[C@H]3CCCNC3)ncnc12` [Example 60, 6-(4-[[(3S)-3-fluoropyrrolidin-1-yl]methyl]phenyl)-4-[(3S)-piperidin-3-ylamino]pyrido[3,2-d]pyrimidine-8-carboxamide]: the pIC50 was above 7.00. For `Cc1cc(-c2cc(C(N)=O)c3ncnc(N[C@@H]4CNC[C@@H](F)C4)c3n2)sn1` [Example 6, 4-{[(3S,5S)-5-fluoropiperidin-3-yl]amino}-6-(3-methyl-1,2-thiazol-5-yl)pyrido[3,2-d]pyrimidine-8-carboxamide] the value was above 7.00; for `COCCn1cc(-c2cc(C(N)=O)c3ncnc(N[C@H]4CCCNC4)c3n2)cn1` [Example 19, (S)-6-(1-(2-methoxyethyl)-1H-pyrazol-4-yl)-4-(piperidin-3-ylamino)pyrido[3,2-d]pyrimidine-8-carboxamide], above 7.00. With `NCCNc1ncnc2c(C(N)=O)cc(-c3ccc(CN4CCOCC4)cc3)nc12` [Example 23, 4-((2-aminoethyl)amino)-6-(4-(morpholinomethyl)phenyl)pyrido[3,2-d]pyrimidine-8-carboxamide], the pIC50 is above 7.00. For the compound `NC(=O)c1cc(CC2CCOCC2)nc2c(N[C@H]3CCCNC3)ncnc12` [Example 88, 6-[(oxan-4-yl)methyl]-4-{[(3S)-piperidin-3-yl]amino}pyrido[3,2-d]pyrimidine-8-carboxamide], the pIC50 is below 6.00. Next, `NC(=O)c1cc(CC2CCOC2)nc2c(N[C@H]3CCCNC3)ncnc12` (stereo partly drawn) [Example 84, 6-[(oxolan-3-yl)methyl]-4-{[(3S)-piperidin-3-yl]amino}pyrido[3,2-d]pyrimidine-8-carboxamide]: below 6.00; `N#Cc1c(-c2cc(C(N)=O)c3ncnc(N[C@@H]4CNC[C@@H](F)C4)c3n2)ccc2ncccc12` [Example 2, 6-(5-cyanoquinolin-6-yl)-4-{[(3S,5S)-5-fluoropiperidin-3-yl]amino}pyrido[3,2-d]pyrimidine-8-carboxamide]: above 7.00; `CC(C)n1cc(-c2cc(C(N)=O)c3ncnc(N[C@H]4CCCNC4)c3n2)cn1` [Example 78, 4-{[(3S)-piperidin-3-yl]amino}-6-[1-(propan-2-yl)-1H-pyrazol-4-yl]pyrido[3,2-d]pyrimidine-8-carboxamide]: above 7.00. For `NC(=O)c1cc(-c2cnn(C(F)F)c2)nc2c(N[C@H]3CCCNC3)ncnc12` [Example 77, 6-[1-(difluoromethyl)-1H-pyrazol-4-yl]-4-{[(3S)-piperidin-3-yl]amino}pyrido[3,2-d]pyrimidine-8-carboxamide], the negative-log IC50 (pIC50) was above 7.00.

On to `NC(=O)c1cc(-c2cccnc2C(F)(F)F)nc2c(N[C@H]3CCCNC3)ncnc12` [Example 87, 4-{[(3S)-piperidin-3-yl]amino}-6-[2-(trifluoromethyl)pyridin-3-yl]pyrido[3,2-d]pyrimidine-8-carboxamide], for which the pIC50 is 6.00 to 7.00. Turning to `NC(=O)c1cc(-c2ccc(CN3CCOCC3)cc2)nc2c(N[C@H]3CCCCNC3)ncnc12` [Example 21], the pIC50 was 6.00 to 7.00.

These data come from US20250320228A1, “PYRIDO[3,2-D]PYRIMIDINES AS HPK1 INHIBITORS” (Merck Patent GmbH, priority 2022, published 2025).
